ChEMBL document CHEMBL1142367, “1H-Pyrazolo[3,4-g]hexahydro-isoquinolines as selective glucocorticoid receptor antagonists with high functional activity” (Bioorg Med Chem Lett, 2008)

Tests used:
[1] = Oral bioavailability in rat; type: ADME, organism-based; conditions: in vivo
Glucocorticoid receptor [2] = biological target: T1, Glucocorticoid receptor (Homo sapiens, UniProt P04150); assay: Antagonist activity at GR in SW1353/MMTV5 cells assessed as inhibition of dexamethasone-induced luciferase expression; type: functional, cell-based
T1 sequence (P04150 whole entry): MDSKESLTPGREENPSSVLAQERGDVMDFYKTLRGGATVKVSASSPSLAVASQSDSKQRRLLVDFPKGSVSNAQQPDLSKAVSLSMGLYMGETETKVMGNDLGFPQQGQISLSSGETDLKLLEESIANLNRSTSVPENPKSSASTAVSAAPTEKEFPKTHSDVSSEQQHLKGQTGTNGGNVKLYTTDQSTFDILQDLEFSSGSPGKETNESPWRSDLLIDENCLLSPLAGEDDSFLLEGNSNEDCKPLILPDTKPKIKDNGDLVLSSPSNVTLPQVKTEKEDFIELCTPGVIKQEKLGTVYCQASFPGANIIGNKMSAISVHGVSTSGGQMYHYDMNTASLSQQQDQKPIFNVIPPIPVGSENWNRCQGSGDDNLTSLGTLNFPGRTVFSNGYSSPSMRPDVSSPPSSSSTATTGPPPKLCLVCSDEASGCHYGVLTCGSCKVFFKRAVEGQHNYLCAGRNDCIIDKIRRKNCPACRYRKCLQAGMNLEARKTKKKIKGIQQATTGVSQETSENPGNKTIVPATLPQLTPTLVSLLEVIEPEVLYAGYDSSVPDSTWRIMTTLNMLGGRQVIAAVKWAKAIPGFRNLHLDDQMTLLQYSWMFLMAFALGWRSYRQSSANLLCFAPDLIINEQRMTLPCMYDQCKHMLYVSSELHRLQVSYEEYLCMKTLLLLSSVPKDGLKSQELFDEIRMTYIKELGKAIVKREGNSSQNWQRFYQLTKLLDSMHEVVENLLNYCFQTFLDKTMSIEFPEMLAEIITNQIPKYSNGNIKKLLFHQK

Glucocorticoid receptor [3] = biological target: T1, Glucocorticoid receptor; assay: Displacement of [3H]dexamethasone from human recombinant GR
Rattus norvegicus = assay: AUC in rat at 5 mg/kg, po; type: ADME, organism-based, Plasma; parameters: dose 5 mg/kg, route oral; conditions: in vivo
[4] = Cmax in rat at 5 mg/kg, po; type: ADME, organism-based; parameters: dose 5 mg/kg, route oral; conditions: in vivo
[5] = Half life in rat at 5 mg/kg, po; type: ADME, organism-based; parameters: dose 5 mg/kg, route oral; conditions: in vivo
[6] = Oral bioavailability in rat at 5 mg/kg; type: ADME, organism-based; conditions: in vivo
[7] = Ratio of drug level in brain to plasma in rat at 5 mg/kg, po; type: ADME, organism-based; parameters: dose 5 mg/kg, route oral; conditions: read-out: BPR
[8] = Oral bioavailability in dog at […]; type: ADME, organism-based, Canis lupus familiaris; conditions: in vivo
[9] = Cmax in dog at […], po; type: ADME, organism-based, Canis lupus familiaris; parameters: dose 2.5 mg/kg, route oral; conditions: in vivo
Canis familiaris = assay: AUC in dog at […], po; type: ADME, organism-based, Canis lupus familiaris, Plasma; parameters: dose 2.5 mg/kg, route oral; conditions: in vivo
[10] = Half life in dog at […], po; type: ADME, organism-based, Canis lupus familiaris; parameters: dose 2.5 mg/kg, route oral; conditions: in vivo

Row | Structure (SMILES) | Ki (Glucocorticoid receptor [2]) [nM] | Ki (Glucocorticoid receptor [3]) [nM] | also measured
1 | COCCOC[C@]12Cc3cnn(-c4ccc(F)cc4)c3C=C1CCN(S(=O)(=O)c1ccc(C(C)(C)C)cc1)C2 | 0.6 | 0.7 | bioavailability [1]: 0%
2 | CC(C)(C)c1ccc(S(=O)(=O)N2CCC3=Cc4c(cnn4-c4ccc(F)cc4)C[C@]3(CO)C2)cc1 | 47 | 1.6 | 
3 | COCCOC[C@]12Cc3cnn(-c4ccc(F)cc4)c3C=C1CCN(S(=O)(=O)c1ccccc1)C2 | 2.9 | 0.5 | 
4 | CC(C)(C)c1ccc(S(=O)(=O)N2CCC3=Cc4c(cnn4-c4ccc(F)cc4)C[C@]3(CN3CCOCC3)C2)cc1 | 7.1 | 0.9 | AUC (Rattus norvegicus): 0.302 µg/h/mL; Cmax [4]: 75 ng/mL; half-life [5]: 2 h; bioavailability [6]: 10%; Kp [7]: 0.1
5 | CS(=O)(=O)N1CCC2=Cc3c(cnn3-c3ccc(F)cc3)CC2(Cc2ccc(F)cc2)C1 (racemic) | > 1000 | 13 | 
6 | CC(C)(C)c1ccc(S(=O)(=O)N2CCC3=Cc4c(cnn4-c4ccc(F)cc4)C[C@]3(CN3CCCC3)C2)cc1 | 3.4 | 1.1 | bioavailability [1]: 2%
7 | O=S(=O)(c1ccc(N2CCOCC2)cc1)N1CCC2=Cc3c(cnn3-c3ccc(F)cc3)CC2(Cc2ccc(F)cc2)C1 (racemic) | 11 | 1.3 | 
8 | O=S(=O)(N1CCOCC1)N1CCC2=Cc3c(cnn3-c3ccc(F)cc3)CC2(Cc2ccc(F)cc2)C1 (racemic) | > 1000 | 26 | 
9 | O=S(=O)(c1ccccc1)N1CCC2=Cc3c(cnn3-c3ccc(F)cc3)CC2(Cc2ccc(F)cc2)C1 (racemic) | 36 | 2.2 | 
10 | CN(C)C[C@]12Cc3cnn(-c4ccc(F)cc4)c3C=C1CCN(S(=O)(=O)c1ccc(C(C)(C)C)cc1)C2 | 6.9 | 1.2 | bioavailability [1]: 0%
11 | CN(C)CCNC[C@]12Cc3cnn(-c4ccc(F)cc4)c3C=C1CCN(S(=O)(=O)c1ccc(C(C)(C)C)cc1)C2 | 60 | 3.8 | 
12 | C=CCNC[C@]12Cc3cnn(-c4ccc(F)cc4)c3C=C1CCN(S(=O)(=O)c1ccc(C(C)(C)C)cc1)C2 | 11 | 0.9 | 
13 | O=S(=O)(c1ccccc1)N1CCC2=Cc3c(cnn3-c3ccc(F)cc3)C[C@]2(CN2CCCC2)C1 | 4.9 | 1.5 | 
14 | COC[C@]12Cc3cnn(-c4ccc(F)cc4)c3C=C1CCN(S(=O)(=O)c1ccccc1)C2 | 20 | 1 | AUC (Rattus norvegicus): 0.112 µg/h/mL; Cmax [4]: 23 ng/mL; half-life [5]: 3.6 h; bioavailability [8]: 20%; bioavailability [6]: 3%; Kp [7]: 0.75; Cmax [9]: 258 ng/mL; AUC (Canis familiaris): 0.894 µg/h/mL; half-life [10]: 5.9 h
15 | Fc1ccc(CC23Cc4cnn(-c5ccc(F)cc5)c4C=C2CCN(Cc2cccnc2)C3)cc1 (racemic) | > 1000 | 22 | 
16 | O=S(=O)(c1ccc(F)cc1)N1CCC2=Cc3c(cnn3-c3ccc(F)cc3)C[C@]2(CO)C1 | 184 | 8.6 | 
17 | CC(C)(C)c1ccc(S(=O)(=O)N2CCC3=Cc4c(cnn4-c4ccc(F)cc4)C[C@]3(CNCCO)C2)cc1 | 28 | 2.8 | 
18 | CN(C)C[C@]12Cc3cnn(-c4ccc(F)cc4)c3C=C1CCN(S(=O)(=O)c1ccc(F)cc1)C2 | 29 | 2.6 | 
19 | CC(C)(C)c1ccc(S(=O)(=O)N2CCC3=Cc4c(cnn4-c4ccc(F)cc4)C[C@]3(COCCN3CCCCC3)C2)cc1 | 77 | 8.6 | 
20 | Cc1ccc(S(=O)(=O)N2CCC3=Cc4c(cnn4-c4ccc(F)cc4)C[C@]3(C)C2)cc1 | 96 | 2.3 | 
21 | CC(C)(C)c1ccc(S(=O)(=O)N2CCC3=Cc4c(cnn4-c4ccc(F)cc4)CC3(Cc3ccc(F)cc3)C2)cc1 (racemic) | 14 | 1.3 | 
22 | O=S(=O)(c1ccccc1)N1CCC2=Cc3c(cnn3-c3ccc(F)cc3)C[C@]2(CN2CCCCC2)C1 | 5.8 | 0.8 | 
23 | COC[C@]12Cc3cnn(-c4ccc(F)cc4)c3C=C1CCN(S(=O)(=O)c1ccc(C(C)(C)C)cc1)C2 | 7.7 | 0.8 | AUC (Rattus norvegicus): 0.43 µg/h/mL; Cmax [4]: 94 ng/mL; half-life [5]: 2.9 h; bioavailability [6]: 11%; Kp [7]: 0.1
24 | CC(C)(C)c1ccc(S(=O)(=O)N2CCC3=Cc4c(cnn4-c4ccc(F)cc4)C[C@]3(CN3CCCCC3)C2)cc1 | 5.8 | 1.6 | 
25 | CCOC[C@]12Cc3cnn(-c4ccc(F)cc4)c3C=C1CCN(S(=O)(=O)c1ccc(C(C)(C)C)cc1)C2 | 1.9 | 0.8 | 
